Measurements from patent US4994270A, “A54145 antibiotics and process for their production” (Eli Lilly and Company, priority 1988, dated 1991).
Positions of bridges follow the written chain, without caps; N, C: chain ends. Non-standard residues stand in square brackets, D forms with d. Residues, ends and D or L forms follow the SMILES beside them. *: point of attachment. Ileψ(thiazoline)Cys = CC[C@H](C)[C@H](N)C1=N[C@H](C(=O)*)CS1; dOrn = NCCC[C@@H](N)C(=O)O

System: Streptomyces fradiae A54145.1, A54145.2 and A54145.3
Test: Resistance to antibiotics, sensitivity discs on seeded ISP No. 2 agar plates
Conditions: identical for A54145.1, A54145.2, A54145.3; lincomycin 2 μg, penicillin G 10 units, bacitracin 10 units, cephalothin 30 μg, gentamicin 10 μg, neomycin 30 μg, oleandomycin 15 μg, rifampin 5 μg, streptomycin 10 μg, tetracycline 30 μg, tobramycin 10 μg, vancomycin 30 μg
Procedure: Resistance to antibiotics was measured by padding antibiotic sensitivity discs onto the surface of seeded ISP No. 2 agar plates.

Q: For `CC[C@H](C)[C@H](N)C1=N[C@H](C(=O)N[C@@H](CC(C)C)C(=O)N[C@H](CCC(=O)O)C(=O)N[C@H](C(=O)N[C@H]2CCCCNC(=O)[C@H](CC(N)=O)NC(=O)[C@@H](CC(=O)O)NC(=O)[C@H](Cc3cnc[nH]3)NC(=O)[C@@H](Cc3ccccc3)NC(=O)[C@H]([C@@H](C)CC)NC(=O)[C@@H](CCCN)NC2=O)[C@@H](C)CC)CS1` [bacitracin] ({Ileψ(thiazoline)Cys}-L[dE]IK[dOrn]I[dF]H[dD]N; lactam 4-C), which “resistance or sensitivity of the strains to antibiotic discs” value (“resistance or sensitivity of the strains” below) is on record?
A: The value was “sensitive”.

Q: For `CC(=O)OCC1=C(C(=O)O)N2C(=O)[C@@H](NC(=O)Cc3cccs3)[C@H]2SC1` [cephalothin], which “resistance or sensitivity of the strains” value is on record?
A: Its value is “sensitive”.

Q: Which “resistance or sensitivity of the strains” value does the source give for `CCC[C@@H]1C[C@@H](C(=O)N[C@@H]([C@H]2O[C@H](SC)[C@H](O)[C@@H](O)[C@H]2O)[C@@H](C)O)N(C)C1` [lincomycin] here?
A: Its value is “resistant”.

Q: `CO[C@H]1C[C@H](O[C@H]2[C@H](C)[C@@H](O[C@@H]3O[C@H](C)C[C@H](N(C)C)[C@H]3O)[C@@H](C)C[C@@]3(CO3)C(=O)[C@H](C)[C@@H](O)[C@@H](C)[C@@H](C)OC(=O)[C@@H]2C)O[C@@H](C)[C@@H]1O` [oleandomycin] was tested. Which “resistance or sensitivity of the strains” value did it give?
A: Its value is “sensitive”.

Q: `CC1(C)S[C@@H]2[C@H](NC(=O)Cc3ccccc3)C(=O)N2[C@H]1C(=O)O` [penicillin G] was tested. Which “resistance or sensitivity of the strains” value did it give?
A: Its value is “resistant”.

Q: With `CO[C@H]1/C=C/O[C@@]2(C)Oc3c(C)c(O)c4c(O)c(c(/C=N/N5CCN(C)CC5)c(O)c4c3C2=O)NC(=O)/C(C)=C\C=C\[C@H](C)[C@H](O)[C@@H](C)[C@@H](O)[C@@H](C)[C@H](OC(C)=O)[C@@H]1C` [rifampin] as the molecule, how does the “resistance or sensitivity of the strains” value read?
A: Its value is “sensitive”.

Q: How did the “resistance or sensitivity of the strains” value turn out when `[H]/N=C(/N)N[C@H]1[C@H](O)[C@@H](O)[C@H](O[C@@H]2O[C@@H](C)[C@](O)(C=O)[C@H]2O[C@@H]2O[C@@H](CO)[C@H](O)[C@@H](O)[C@@H]2NC)[C@@H](N/C(N)=N\[H])[C@@H]1O` [streptomycin] was run?
A: The value was “sensitive”.

Q: For `CN(C)[C@@H]1C(O)=C(C(N)=O)C(=O)[C@@]2(O)C(O)=C3C(=O)c4c(O)cccc4[C@@](C)(O)[C@H]3C[C@@H]12` [tetracycline], which “resistance or sensitivity of the strains” value is on record?
A: Its value is “sensitive”.

Q: Which “resistance or sensitivity of the strains” value does the source give for `NC[C@H]1O[C@H](O[C@H]2[C@H](O)[C@@H](O[C@H]3O[C@H](CO)[C@@H](O)[C@H](N)[C@H]3O)[C@H](N)C[C@@H]2N)[C@H](N)C[C@@H]1O` [tobramycin] here?
A: Its value is “sensitive”.

Q: `CN[C@H](CC(C)C)C(=O)N[C@H]1C(=O)N[C@@H](CC(N)=O)C(=O)N[C@H]2C(=O)N[C@H]3C(=O)N[C@H](C(=O)N[C@H](C(=O)O)c4cc(O)cc(O)c4-c4cc3ccc4O)[C@H](O)c3ccc(c(Cl)c3)Oc3cc2cc(c3O[C@@H]2O[C@H](CO)[C@@H](O)[C@H](O)[C@H]2O[C@H]2C[C@](C)(N)[C@H](O)[C@H](C)O2)Oc2ccc(cc2Cl)[C@H]1O` [vancomycin] was tested. Which “resistance or sensitivity of the strains” value did it give?
A: Its value is “sensitive”.

Q: For gentamicin, which “resistance or sensitivity of the strains” value is on record?
A: The value was “sensitive”.

Q: With neomycin as the molecule, how does the “resistance or sensitivity of the strains” value read?
A: Its value is “sensitive”.
